Measured values published in US8889704B2 (Array BioPharma Inc., priority 2011, dated 2014).
Structures can show the parent of a compound that is named as a salt.

Assays:
Format in all cases: biochemical
PIM-1 = PIM-1 (Homo sapiens, UniProt P11309); test: Enzyme PIM-1 Assay ([33P]ATP incorporation into PIM2tide, filter plate); conditions: averaged IC50; 35 μM ATP, 7.5 μM PIM2tide, 0.25 nM PIM-1, 60 min at 22° C.
Method in brief: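 Ten-point, 3-fold dilution series (10 μM top, 2% DMSO final) tested for inhibition of 33P transfer from 35 μM ATP to 7.5 μM PIM2tide by 0.25 nM PIM-1. Reaction 60 min, 22 °C, pH 7.4 MOPS/MgCl2 buffer; phosphocellulose capture, scintillation counting, IC50 where fitted POC equals 50.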

recombinant rat PIM-3 = recombinant rat PIM-3 (Rattus norvegicus, UniProt O70444); test: PIM-3 Assay (as Example A); conditions: averaged IC50; 30 μM ATP, 3.75 μM PIM2tide, 0.5 nM PIM-3
Method in brief: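 33P incorporation from 30 μM [γ-33P]ATP into 3.75 μM PIM2tide by 0.5 nM rat PIM-3, 60 min at 22 °C in pH 7.4 MOPS buffer, read by P81 filter capture and scintillation counting. Compounds tested in 3-fold dilutions up to 10 μM final, 2% DMSO; percent-of-control data fitted by 4-parameter logistic for IC50.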

[1] = biological target: T1, GST-tagged recombinant full-length human Pim-2 (Homo sapiens, UniProt Q9P1W9); test: PIM-2 Assay (as Example A); conditions: averaged IC50; 4 μM ATP, 1.0 μM PIM2tide, 1.5 nM Pim-2
T1 construct: GST-tagged recombinant full-length human Pim-2; GST
Method in brief: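 IC50 was derived by 4-parameter logistic fitting of percent-of-control data over a 10-point, 3-fold series (highest 10 μM, 2% DMSO). Reactions held 1.5 nM GST-Pim-2 (full-length, human), 4 μM [γ-33P]ATP and 1.0 μM PIM2tide for 60 min at 22 °C, pH 7.4; 33P-peptide captured on P81 filters.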

T1 sequence (Q9P1W9 whole entry): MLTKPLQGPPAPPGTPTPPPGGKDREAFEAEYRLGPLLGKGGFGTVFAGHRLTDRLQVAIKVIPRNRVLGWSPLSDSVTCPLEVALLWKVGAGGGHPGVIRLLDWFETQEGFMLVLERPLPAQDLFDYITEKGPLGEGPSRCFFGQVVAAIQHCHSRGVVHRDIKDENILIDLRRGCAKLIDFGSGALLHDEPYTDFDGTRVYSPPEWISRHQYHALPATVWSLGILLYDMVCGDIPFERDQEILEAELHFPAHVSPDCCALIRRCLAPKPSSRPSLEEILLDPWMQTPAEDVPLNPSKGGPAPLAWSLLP
Sequence of PIM-1 (P11309 whole entry, species assumed): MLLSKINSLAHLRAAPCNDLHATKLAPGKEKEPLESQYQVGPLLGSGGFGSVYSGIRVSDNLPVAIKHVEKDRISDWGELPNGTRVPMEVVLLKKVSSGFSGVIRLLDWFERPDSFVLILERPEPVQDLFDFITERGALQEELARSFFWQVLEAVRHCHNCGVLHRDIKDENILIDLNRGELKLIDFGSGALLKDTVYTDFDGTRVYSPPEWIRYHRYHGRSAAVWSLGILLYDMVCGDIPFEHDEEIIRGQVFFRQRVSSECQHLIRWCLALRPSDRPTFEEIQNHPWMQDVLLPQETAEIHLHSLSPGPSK

IC50 (PIM-1)	IC50 (recombinant rat PIM-3)	IC50 [1]	SMILES
1.38 nM	33 nM	> 1000 nM	CC(C)(C)C(=O)OCCOc1cc2nc(-c3nnc4ccc([C@@H](N5CC[C@H](N)C5)C(F)(F)F)cn34)ccc2cc1F [Example 286, 2-(2-(6-((R)-1-((S)-3-aminopyrrolidin-1-yl)-2,2,2-trifluoroethyl)-[1,2,4]triazolo[4,3-a]pyridin-3-yl)-6-fluoroquinolin-7-yloxy)ethyl pivalate]
0.13 nM	1.5 nM	65 nM	CN[C@H]1CCN([C@H](c2ccc3nnc(-c4ccc5cccc(OCC6CC6)c5n4)n3c2)C(F)(F)F)C1 [Example 43, (S)-1-((R)-1-(3-(8-(cyclopropylmethoxy)quinolin-2-yl)-[1,2,4]triazolo[4,3-a]pyridin-6-yl)-2,2,2-trifluoroethyl)-N-methylpyrrolidin-3-amine dihydrochloride]
0.48 nM	2.8 nM	764 nM	N[C@H]1CCN([C@H](c2ccc3nnc(-c4ccc5ccc(C6COC6)cc5n4)n3c2)C(F)(F)F)C1 [Example 316, (S)-1-((R)-2,2,2-trifluoro-1-(3-(7-(oxetan-3-yl)quinolin-2-yl)-[1,2,4]triazolo[4,3-a]pyridin-6-yl)ethyl)pyrrolidin-3-amine]
0.27 nM	1.2 nM	> 100 nM	Cc1cccc2ccc(-c3nnc4ccc([C@@H](N5CC[C@H](N)C5)C(F)(F)F)cn34)nc12 [Example 183, (S)-1-((R)-2,2,2-trifluoro-1-(3-(8-methylquinolin-2-yl)-[1,2,4]triazolo[4,3-a]pyridin-6-yl)ethyl)pyrrolidin-3-amine dihydrochloride]
0.06 nM	1.2 nM	12.4 nM	CC(c1ccc2nnc(-c3ccc4cccc(C(C)(C)C)c4n3)n2c1)N1CC[C@H](N)C1 (stereo partly drawn) [Example 17, (3S)-1-(1-(3-(8-tert-butylquinolin-2-yl)-[1,2,4]triazolo[4,3-a]pyridin-6-yl)ethyl)pyrrolidin-3-amine trihydrochloride]
0.2 nM	0.3 nM	41 nM	CC(C)NC(=O)c1ccc2ccc(-c3nnc4ccc([C@@H](N5CC[C@H](N)C5)C(F)(F)F)cn34)nc2c1 [Example 34, 2-(6-((R)-1-((S)-3-aminopyrrolidin-1-yl)-2,2,2-trifluoroethyl)-[1,2,4]triazolo[4,3-a]pyridin-3-yl)-N-isopropylquinoline-7-carboxamide dihydrochloride]
0.24 nM	0.8 nM	170 nM	COc1ccc2ccc(-c3nnc4ccc([C@H](N5CC[C@](C)(N)C5)C(F)(F)F)cn34)nc2c1 [Example 312, (S)-3-methyl-1-((S)-2,2,2-trifluoro-1-(3-(7-methoxyquinolin-2-yl)-[1,2,4]triazolo[4,3-a]pyridin-6-yl)ethyl)pyrrolidin-3-amine]
0.12 nM	0.5 nM	54 nM	COC[C@@H](C)Oc1cccc2ccc(-c3nnc4ccc([C@@H](N5CC[C@H](N)C5)C(F)(F)F)cn34)nc12 [Example 140, (S)-1-((R)-2,2,2-trifluoro-1-(3-(8-((R)-1-methoxypropan-2-yloxy)quinolin-2-yl)-[1,2,4]triazolo[4,3-a]pyridin-6-yl)ethyl)pyrrolidin-3-amine dihydrochloride]
0.49 nM	1 nM	85 nM	CC(C)Oc1ccc2ccc(-c3nnc4ccc([C@@H](N5CC[C@H](N)C5)C(F)(F)F)cn34)nc2c1C1CC1 [Example 151, (S)-1-((R)-1-(3-(8-cyclopropyl-7-isopropoxyquinolin-2-yl)-[1,2,4]triazolo[4,3-a]pyridin-6-yl)-2,2,2-trifluoroethyl)pyrrolidin-3-amine dihydrochloride]
0.13 nM	0.3 nM	53 nM	N[C@H]1CCN(C(c2ccc3nnc(-c4ccc5ccc(C6CC6)cc5n4)n3c2)C(F)(F)F)C1 (stereo partly drawn) [Example 3, (3S)-1-(1-(3-(7-cyclopropylquinolin-2-yl)-[1,2,4]triazolo[4,3-a]pyridin-6-yl)-2,2,2-trifluoroethyl)pyrrolidin-3-amine dihydrochloride]
3.08 nM	13 nM	> 100 nM	COC[C@@H](C)Oc1ccc2ccc(-c3nnc4ccc([C@@H](N5CC[C@H](N)C5)C(F)(F)F)cn34)nc2c1F [Example 180, (S)-1-((R)-2,2,2-trifluoro-1-(3-(8-fluoro-7-((R)-1-methoxypropan-2-yloxy)quinolin-2-yl)-[1,2,4]triazolo[4,3-a]pyridin-6-yl)ethyl)pyrrolidin-3-amine dihydrochloride]
0.49 nM	4.7 nM	> 100 nM	COCCOc1c(F)ccc2ccc(-c3nnc4ccc([C@@H](N5CC[C@H](N)C5)C(F)(F)F)cn34)nc12 [Example 108, (S)-1-((R)-2,2,2-trifluoro-1-(3-(7-fluoro-8-(2-methoxyethoxy)quinolin-2-yl)-[1,2,4]triazolo[4,3-a]pyridin-6-yl)ethyl)pyrrolidin-3-amine hydrochloride]
5.12 nM	47 nM	> 1000 nM	N[C@H]1CCN(C(c2ccc3nnc(-c4ccc5ccc(C(F)(F)F)cc5n4)n3c2)C(F)(F)F)C1 (stereo partly drawn) [Example 29, (3S)-1-(2,2,2-trifluoro-1-(3-(7-(trifluoromethyl)quinolin-2-yl)-[1,2,4]triazolo[4,3-a]pyridin-6-yl)ethyl)pyrrolidin-3-amine dihydrochloride]
0.28 nM	0.8 nM	166 nM	CCOc1cc2nc(-c3nnc4ccc([C@@H](N5CC[C@@H](N)C5)C(F)(F)F)cn34)ccc2cc1F [Example 282, (R)-1-((R)-1-(3-(7-ethoxy-6-fluoroquinolin-2-yl)-[1,2,4]triazolo[4,3-a]pyridin-6-yl)-2,2,2-trifluoroethyl)pyrrolidin-3-amine hydrochloride]
0.05 nM	2.3 nM	> 100 nM	COc1cc2nc(-c3nnc4ccc([C@@H](N5CC[C@H](N)C5)C(F)(F)F)cn34)ccc2cc1F [Example 113, (S)-1-((R)-2,2,2-trifluoro-1-(3-(6-fluoro-7-methoxyquinolin-2-yl)-[1,2,4]triazolo[4,3-a]pyridin-6-yl)ethyl)pyrrolidin-3-amine hydrochloride]
4.05 nM	24 nM	> 1000 nM	CCC1(N)CCN([C@H](c2ccc3nnc(-c4ccc5cccc(OC)c5n4)n3c2)C(F)(F)F)C1 (single isomer, unassigned; diastereomer 2) [Example 252, dihydrochloride]
0.09 nM	0.5 nM	38 nM	COc1ccc2ccc(-c3nnc4ccc([C@@H](N5CC[C@H](N)C5)C(F)(F)F)cn34)nc2c1C1CC1 [Example 143, (S)-1-((R)-1-(3-(8-cyclopropyl-7-methoxyquinolin-2-yl)-[1,2,4]triazolo[4,3-a]pyridin-6-yl)-2,2,2-trifluoroethyl)pyrrolidin-3-amine dihydrochloride]
1.84 nM	18 nM	> 100 nM	CC(C)Oc1c(C#N)ccc2ccc(-c3nnc4ccc([C@@H](N5CC[C@H](N)C5)C(F)(F)F)cn34)nc12 [Example 75, 2-(6-((R)-1-((S)-3-aminopyrrolidin-1-yl)-2,2,2-trifluoroethyl)-[1,2,4]triazolo[4,3-a]pyridin-3-yl)-8-isopropoxyquinoline-7-carbonitrile dihydrochloride]
